Test [1] can be described thus: Activation of PPARgamma Q286G mutant-mediated transcriptional activity assessed as Gal4 reporter activity.
A short description of test [2]: Activation of PPARgamma L469A mutant-mediated transcriptional activity assessed as Gal4 reporter activity.
Test [3] is described as follows: Activation of PPARgamma I472A mutant-mediated transcriptional activity assessed as Gal4 reporter activity.
A short description of test [4]: Activation of PPARgamma L465A mutant-mediated transcriptional activity assessed as Gal4 reporter activity.

As to `CN(CCOc1ccc(CC2SC(=O)NC2=O)cc1)c1ccccn1` (centres undefined) [ROSIGLITAZONE], the EC50 (in general, the concentration needed to bring the measured effect to its halfway point) in test [1] was 0.207 µM; in test [2], more than 10 µM; in test [3] it was more than 10 µM; in test [4], more than 10 µM.

The values above are taken from ChEMBL document CHEMBL1156456, “Insights into the mechanism of partial agonism: crystal structures of the peroxisome proliferator-activated receptor gamma ligand-binding domain in the complex with two enantiomeric ligands” (J Biol Chem, 2007).
